A short description of data set [1]: Tolerability/toxicity in mice. The data set is classed as in vivo.
A short description of data set [2]: Whole human blood stability test. Type of data set: in vitro ADME. The method, then:
To a volume of 0.8 mL fresh whole human blood (Innovative Research, Novi, Mich.) was added 24 μL of a DMSO solution of 2 (2.0 mM), resulting in a final concentration of 60 μM. After 5 sec of vortexing, a 100 μL aliquot of the blood sample (0 h time point) was immediately transferred to a new tube containing 300 μL of octanol, and the remaining […] of blood was incubated at 37° C. with rotation (1100 rpm). The blood-octanol mixture was vortexed for 2 min at R.T. and then centrifuged to separate the phases. The isolated octanol extract was diluted with methanol for GFAAS measurement. At varying time points (1 h, 2 h, 3 h, 5 h, and 7 h), a 100 μL aliquot was removed from the incubating blood and extracted as described above. For the 7 h sample, analytical HPLC was employed to confirm the integrity of the Pt compound. A standard of 2 and an octanol extract from blank whole human blood were used for comparison.

A further data set deals with human IDO in SKOV3 cells. Nature of the data set: Immunoblotting and qRT-PCR of IDO expression in SKOV3 cells. Type of data set: cell-based. As for the experimental part: Total RNA was isolated with the Qiagen RNAeasy RNA isolation kit (Hilden, Germany) and cDNA was synthesized with the Applied Biosystems reverse-transcription-kit (Foster City, Calif., USA). qRT-PCR was performed in a Light cycler 480 II thermo cycler with SYBR Green PCR Mastermix (Roche). All primers were separated by at least one intron on the genomic DNA to exclude its amplification. PCR reactions were checked by including no-RT controls, by omission of templates, and by melting curves. Standard curves were generated for each gene. Relative quantification of gene expression was determined by comparison of threshold values. All samples were analyzed in duplicate at two different dilutions. All results were normalized to GAPDH.
Cells were washed with PBS, scraped into SDS-PAGE loading buffer (64 mM Tris-HCl (pH 6.8)/9.6% glycerol/2% SDS/5% β-mercaptoethanol/0.01% Bromophenol Blue), and incubated at 95° C. for 10 min. […] Membranes were blocked in 5% (w/v) bovine serum albumin in PBST (PBS/0.1% Tween 20) and incubated with the appropriate primary antibodies (Cell Signalling Technology and Santa Cruz). After incubation with horseradish peroxidase-conjugated secondary antibodies (Cell Signalling Technology), 1:1000, immuno complexes were detected with the ECL detection reagent (BioRad) and analyzed using UVP biospectrum imaging system fitted with a chemiluminescence filter.
A general note: A western blot detects proteins with antibodies after separation by electrophoresis.

The next data set concerns genomic DNA. Nature of the data set: DNA platination experiments. The data set is classed as cell-based, human. The note with it: SKOV3, 10 μM, 17 h. As for the experimental part: To gain further insight into the mode of action was studied of 1 and 2, the subcellular distribution of platinum. SKOV3 cells were incubated with the drug candidates (5 μM) for 17 h, using cisplatin as a control. The platinum content was measured by using GFAAS.
These cells were then treated with the compounds (10 μM) in fresh medium (9 mL) and subsequently incubated for 17 h at 37° C. The medium was aspirated and the cells were washed with PBS (3×8 mL), harvested by trypsinization (1 mL), and washed with 2 mL of PBS. The cell suspension was centrifuged at 2000 rpm for 5 min at 4° C. The cell pellet was suspended in DNAzol (1 mL, genomic DNA isolation reagent,). The DNA was precipitated with pure ethanol (0.5 mL), washed with 75% ethanol (0.75 mL×3), and re-dissolved in 500 μL of 8 mM NaOH. The DNA concentration was determined by UV-Vis spectroscopy and the platinum content was quantified by GFAAS. All experiments were carried out in triplicate.

Data set [3] has as its system NIH:OVCAR3 human ovarian cancer cells. The data set can be described thus: Cytotoxicity MTT assay, NIH:OVCAR3. The data set is classed as cell-based. An excerpt: (§1) Ovarian carcinoma cells, NIH:OVCAR3, A2780, A2780/CP70, and SKOV3 were purchased from the American Type Culture Collection (ATCC, Rockville Md.). Peripheral blood mononuclear cells (PBMCs) of two different donors were obtained from Zen Bio Inc. (Research Triangle, NC). Cancer cell lines were maintained in Roswell Park Memorial Institute (RPMI) medium (glutamine-free supplemented with 10% fetal bovine serum, Atlanta Biologics, Atlanta Ga.) and 1% penicillin/streptomycin. PBMCs were thawed in specialized medium (10% […], 40% RPMI and 50% FBS) and subsequently cultured in RPMI containing 20% FBS. For T-cell proliferation experiments, PBMCs were stimulated by the addition of phytohemagglutinin (PHA-P). All cells were grown at 310 K in a humidified atmosphere containing 5% CO2. D-1-methyltryptophan, L-tryptophan and L-kynurenine were purchased from Sigma Aldrich.
(§2) The colorimetric MTT assay was used to determine the toxicity of 1, 2, and cisplatin. Cells (2×10^3) were seeded in each well of a 96-well plate. […] Cisplatin was prepared as a 5 mM solution in PBS and diluted using media. 1, 2 and C16—Pt-Suc-NHC2H4OH were prepared as 10 mM solution in DMSO and diluted using media. […] The absorbance of the solution wells was read at 570 and 650 nm. Absorbance values were normalized to DMSO-containing control wells and plotted as concentration of test compound versus % cell viability. […]
On the technique in general: Formazan colour is commonly taken as a measure of viable cells.

The conditions of data set [4]: reported values used for comparison with human blood stability; cited from earlier work.
Data set [5] deals with A2780/CP70 human ovarian cancer cells. The data set can be described thus: Cytotoxicity MTT assay, A2780/CP70. Type of data set: cell-based. The note with it: A2780/CP70, MTT, 72 h.
Text: as §1
The colorimetric MTT assay was used to determine the toxicity of 1, 2, and cisplatin. Cells (2×10^3) were seeded in each well of a 96-well plate. […] Cisplatin was prepared as a 5 mM solution in PBS and diluted using media. 1, 2 and C16—Pt-Suc-NHC2H4OH were prepared as 10 mM solution in DMSO and diluted using media. The final volume amount of DMSO in each well was 0.5%, and which was present in the untreated control as well. Cells co-incubated with cisplatin and (D)-1-MT were first pre-treated with 1 mM (D)-1-MT. […] The RPMI/MTT, mixture was aspirated and 100 μL of DMSO was added to dissolve the resulting purple formazan crystals. The absorbance of the solution wells was read at 570 and 650 nm. Absorbance values were normalized to DMSO-containing control wells and plotted as concentration of test compound versus % cell viability. IC50 values were interpolated from the resulting dose dependent curves. The reported IC50 values are the average of at least three independent experiments, each of which consisted of six replicates per concentration level.

Data set [6] concerns SKOV3 human ovarian cancer cells. Nature of the data set: Cytotoxicity MTT assay, SKOV3. Type of data set: cell-based.
Text: as §1, §2

Data set [7] relates to A2780 human ovarian cancer cells. The data set can be described thus: Cytotoxicity MTT assay, A2780. Conditions: 72 h. Type of data set: cell-based.
Text: as §1, §2

A further data set concerns SKOV3 cells. Nature of the data set: Cell cycle analysis by flow cytometry (DNA content). (In general: A flow cytometer gives signals particle by particle.)
A short description of data set [8]: Water-octanol partition coefficient (Log P), shake-flask method and GFAAS. Conditions: octanol/PBS.
Data set [9] has as its system HCT 116 P53−/− colorectal cell line. The data set can be described thus: MTT anticancer activity, HCT116 p53 −/−. Conditions: 48 h. Type of data set: cell-based. The method, then: (§3) An MTT assay was run to measure the compounds anti cancer activity. The two colorectal cell lines HCT 116 P53+/+ and HCT 116 P53−/− were plated on 96 well plates. After adhesion to the plate, each individual compound was added to three rows, each consisting of 8 wells with a 3 fold dilution in concentration per well beginning at 25 μM. After 48 hours of incubation, the MTT reagent was added to the plates, which were then incubated for another 4 hours. The well contents were then dissolved in 200 μL of DMSO, and the plates were read for UV absorption at 570 nm and 650 nm. The collected data was then analyzed to produce the sigmoidal curves, which were then used to interpolate the IC50 values of each compounds. (See Table 3).

Data set [10] relates to HCT 116 P53+/+ colorectal cell line. The data set can be described thus: MTT anticancer activity, HCT116 p53 +/+. The data set is classed as cell-based. Conditions: 48 h. The method, then: as §3

Turning to `Cn1cc(C[C@@H](N)C(=O)[O][Pt]([NH2])([NH2])([Cl])([Cl])[O]C(=O)[C@H](N)Cc2cn(C)c3ccccc23)c2ccccc21` (mixture of isomers) [Compound 1, cis,cis,trans-[Pt(NH3)2Cl2(O2C-D-1-MT)2]], the “toxicity / tolerance in mice” value in data set [1] is reported as “low toxicity in mice”. For the same molecule, in data set [2], the stability in blood result is recorded as “stable in blood”. For the same molecule, in the data set “physchem”, the logP (in general, a log measure of how a compound divides between an organic and an aqueous phase) at 3 h was -0.21 ± 0.08. Further, in the data set with human IDO in SKOV3 cells (immunoblotting), the “concentration at which IDO protein expression is blocked” value amounted to 100 µM.
On to [cis-Pt(NH3)2Cl2] [Cisplatin], for which, in the data set with genomic DNA, the DNA platination is recorded as 409±54 Pt adducts/10^4 nucleotides. The IC50 (as a rule, the midpoint of a concentration-inhibition curve) in data set [3] (72 h) was 4.1 ± 0.2 µM; in data set [5] it was 10.4 ± 0.6 µM; in data set [6] (72 h), 3.7 ± 0.28 µM; in [7], 0.7 ± 0.2 µM. Also, in data set [4], the “t1/2 (reported)” value is 21.6 min. For the same molecule, the “cell cycle arrest phase” value with SKOV3 cells is given as “G2/M arrest”.
In the case of `CC(=O)[O][Pt]([NH2])([Cl])([Cl])([NH]C1CCCCC1)[O]C(C)=O` [satraplatin], in data set [4], the “t1/2 (reported)” value is given as 6 min.
Turning to `Cn1cc(C[C@@H](N)C(=O)O)c2ccccc21` [(D)-1-MT, D-1-methyltryptophan], the IC50 amounted to 1200 ± 80 µM in [3] (Homo sapiens, OVCAR-3, 72 h); 1040 ± 63.9 µM in data set [5] (Homo sapiens); 1918 ± 8.4 µM in data set [6] (Homo sapiens, SK-OV-3, 72 h); 833 ± 7.53 µM in data set [7] (Homo sapiens). This molecule showed a logP at 3 h in [8] of -2.98 ± 0.15.
As for `O=C(O)C(=O)O.[NH-][C@@H]1CCCC[C@H]1[NH-].[Pt+2]` [Oxaliplatin], the half-inhibitory concentration (IC50) in data set [9] came to 6.55 ± 1.78 µM; in data set [10], 1.32 ± 1.48 µM.
As to `CCCCCCCCCCCCCCCCNC(=O)[O][Pt]([NH2])([NH2])([Cl])([Cl])[O]C(=O)CCC(=O)O` [C16—Pt-Suc, reference compound], the “IDO protein expression (IDO inhibition)” value with human IDO in SKOV3 cells (immunoblotting and qRT-PCR) is “did not show IDO inhibition”.

The values are drawn from US20170129911A1, “COMPLEXES COMPRISING A PLATINUM COMPOUND AND AN IMMUNE CHECKPOINT INHIBITOR AND RELATED METHODS” (Massachusetts Institute of Technology, priority 2015, published 2017).
